Measured values from patent US9877997B2, “Methods and compositions for regulating SRCA2A expression levels in myocardial infarction” (Stealth BioTherapeutics Corp., priority 2013, dated 2018).

Columns and labels:
[1] = system: plasma membrane of several mammalian cell types; details: energy-independent manner; cited from earlier work
SERCA2a expression = SERCA2a expression by qRT-PCR in heart samples post-myocardial infarction (Example 1); format: in vivo; details: rat, 6 weeks, normalized to β-actin, relative to sham
Procedure: Rats were anesthetized, ventilated, and a thoracotomy performed in the left 4th intercostal space. Temperature was maintained at 36° C. by placing the rats on a heating pad during the procedure. The pericardium was excised and the proximal left coronary artery isolated and permanently occluded with a suture. Coronary artery occlusion was confirmed by cyanosis and akinesis of the anterior wall of the ventricle. The chest was closed, air evacuated, and the rats allowed to recover. Analgesia was administered per the veterinarian. An echocardiogram was obtained at approximately 15 minutes post coronary artery occlusion. At 2 hours rats were randomized to receive chronic daily D-Arg-2′6′-Dmt-Lys-Phe-NH2 (delivered subcutaneously by an Alzet Osmotic Pump—3 mg/kg/day, n=7), water (n=7), sham operation (normal non-infarct hearts, n=7). The Osmotic Pump delivered approximately 0.15 μl/hr for 6 weeks (model 2006; 200 μl). The Alzat pump was implanted subcutaneously between the shoulder blades while the rat was still anesthetized.
After 6 weeks, heart samples were collected from shams, border zone cells of water-treated infarcted hearts (MI/BZ) and D-Arg-2′6′-Dmt-Lys-Phe-NH2-treated hearts (MI/BZ+AP), and remote noninfarcted area cells of water-treated hearts (MI/R) and of D-Arg-2′6′-Dmt-Lys-Phe-NH2-treated hearts (MI/R+AP). […]

[2] = system: Rats with permanent left coronary artery occlusion; assay: LV fractional shortening by echocardiography, permanent coronary occlusion (Example 2); format: in vivo, rat
Procedure: (§1) Rats were anesthetized, ventilated, and a thoracotomy performed in the left 4th intercostal space. Temperature was maintained at 36° C. by placing the rats on a heating pad during the procedure. The pericardium was excised and the proximal left coronary artery isolated and permanently occluded with a suture. Coronary artery occlusion was confirmed by cyanosis and akinesis of the anterior wall of the ventricle. The chest was closed, air evacuated, and the rats allowed to recover. Analgesia was administered per the veterinarian. An echocardiogram was obtained at approximately 15 minutes post coronary artery occlusion. At 2 hours rats were randomized to receive chronic daily D-Arg-2′6′-Dmt-Lys-Phe-NH2 (delivered subcutaneously by an Alzet Osmotic Pump—3 mg/kg/day) or water. The Osmotic Pump delivered approximately 0.15 μl/hr for 6 weeks (model 2006; 200 μl). The Alzat pump was implanted subcutaneously between the shoulder blades while the rat was still anesthetized. After 6 weeks the rats were re-anesthetized, weighed, and a second echocardiogram was obtained under anesthesia. Cut downs were performed to isolate the carotid artery and jugular vein. Heart rate and blood pressure were measured. A Millar catheter was inserted into the left ventricle and LV systolic pressure, LV end diastolic pressure, +dP/dt, and −dP/dt were measured. A left ventriculogram was performed using IV fluoroscopic contrast in order to determine LV stroke volume and ejection fraction. Under deep anesthesia, the heart was excised, weighed, and pressure fixed at 11 mmHg with formalin. The lungs were also excised and weighed. Postmortem LV volume was measured by filling the LV cavity with fluid and measuring the total fluid. […] Quantitative histologic analysis included: total circumference, scar circumference, non-infarcted wall circumference, total LV area, total LV cavity area, LV wall thickness (at several points), non-infarcted wall thickness; myocardial infarct expansion index. […]

[3] = system: Rats with permanent left coronary artery occlusion; assay: LV stroke volume and ejection fraction by LV ventriculography (Example 2); format: in vivo, rat; details: 6 weeks after treatment, 3 mg/kg/day s.c.
Procedure: as §1, with “The Osmotic Pump delivered approximately 0.15 μl/hr for 6 weeks (model 2006; 200 μl). The Alzat pump was implanted subcutaneously between the shoulder blades while the rat was still anesthetized. After 6 weeks the rats were re-anesthetized, weighed, and a second echocardiogram was obtained under anesthesia. Cut downs were performed to isolate the carotid artery and jugular vein.” left out, “A left ventriculogram was performed using IV fluoroscopic contrast in order to determine LV stroke volume and ejection fraction. Under deep anesthesia, the heart was excised, weighed, and pressure fixed at 11 mmHg with formalin. The lungs were also excised and weighed.” left out

[4] = system: Rats with permanent left coronary artery occlusion; assay: Hemodynamics: heart rate, blood pressure and LV pressures by Millar catheter (Example 2); format: in vivo, rat; details: 6 weeks after treatment
Procedure: (§2) Rats were anesthetized, ventilated, and a thoracotomy performed in the left 4th intercostal space. Temperature was maintained at 36° C. by placing the rats on a heating pad during the procedure. The pericardium was excised and the proximal left coronary artery isolated and permanently occluded with a suture. Coronary artery occlusion was confirmed by cyanosis and akinesis of the anterior wall of the ventricle. The chest was closed, air evacuated, and the rats allowed to recover. Analgesia was administered per the veterinarian. An echocardiogram was obtained at approximately 15 minutes post coronary artery occlusion. At 2 hours rats were randomized to receive chronic daily D-Arg-2′6′-Dmt-Lys-Phe-NH2 (delivered subcutaneously by an Alzet Osmotic Pump—3 mg/kg/day) or water. The Osmotic Pump delivered approximately 0.15 μl/hr for 6 weeks (model 2006; 200 μl). The Alzat pump was implanted subcutaneously between the shoulder blades while the rat was still anesthetized. After 6 weeks the rats were re-anesthetized, weighed, and a second echocardiogram was obtained under anesthesia. Cut downs were performed to isolate the carotid artery and jugular vein. Heart rate and blood pressure were measured. A Millar catheter was inserted into the left ventricle and LV systolic pressure, LV end diastolic pressure, +dP/dt, and −dP/dt were measured. A left ventriculogram was performed using IV fluoroscopic contrast in order to determine LV stroke volume and ejection fraction. Under deep anesthesia, the heart was excised, weighed, and pressure fixed at 11 mmHg with formalin. The lungs were also excised and weighed. Postmortem LV volume was measured by filling the LV cavity with fluid and measuring the total fluid. The hearts were sliced into four transverse sections and histologic slides were prepared and stained with hematoxylin and eosin and with picrosirius red, which stains collagen. Quantitative histologic analysis included: total circumference, scar circumference, non-infarcted wall circumference, total LV area, total LV cavity area, LV wall thickness (at several points), non-infarcted wall thickness; myocardial infarct expansion index.
(§3) All data is reported as means±SEM. Values between groups were compared by Student t-test. P is significant at p<0.05 level.

[5] = system: Rats with permanent left coronary artery occlusion; assay: Heart weight and post-mortem LV volume (Example 2); format: in vivo, rat; details: 6 weeks after treatment
Procedure: as §1

[6] = system: Rats with permanent left coronary artery occlusion; assay: Quantitative histologic analysis of scar circumference, scar thickness and expansion index (Example 2); format: in vivo, rat; details: 6 weeks after treatment
Procedure: as §2, §3

[7] = system: Rats with permanent left coronary artery occlusion; assay: Survival during 6 weeks treatment after coronary occlusion (Example 2); format: in vivo, rat; details: 6 weeks treatment after randomization at 2 hours post occlusion
Procedure: as §1, with “The Osmotic Pump delivered approximately 0.15 μl/hr for 6 weeks (model 2006; 200 μl). The Alzat pump was implanted subcutaneously between the shoulder blades while the rat was still anesthetized. After 6 weeks the rats were re-anesthetized, weighed, and a second echocardiogram was obtained under anesthesia. Cut downs were performed to isolate the carotid artery and jugular vein.” left out, “A left ventriculogram was performed using IV fluoroscopic contrast in order to determine LV stroke volume and ejection fraction. Under deep anesthesia, the heart was excised, weighed, and pressure fixed at 11 mmHg with formalin. The lungs were also excised and weighed.” left out

[8] = system: Rats with permanent coronary artery ligation; assay: Post-infarction remodeling in a rodent model of heart failure, LV chamber volume (Example 3); format: in vivo, rat
Procedure: Rats underwent the permanent coronary artery ligation, as described in Example 2. The rats were split into two groups and treated for six weeks with either 3 mg/kg/day of D-Arg-2′6′-Dmt-Lys-Phe-NH2 or 0.9% NaCl (saline) continuously through mini-osmotic pumps, which were implanted into each animal.
After the six week period, LV function was assessed with echocardiography. Additionally, the hearts were excised and the heart tissue analyzed for LV chamber volume using tetrazolium salt staining Heart tissue in the border zone and remote areas around the infarct were also harvested and underwent gene array analysis to determine the expression levels of genes involved in mitochondrial metabolism.

2′,6′-Dmt-D-Arg-Phe-Lys-NH2
plasma membrane penetration [1]: readily penetrates the plasma membrane

D-Arg-2′6′-Dmt-Lys-Phe-NH2
SERCA2a expression, border zone cells (MI/BZ+AP) (SERCA2a expression; 3 mg/kg/day s.c. osmotic pump from 2 hours post occlusion): restored SERCA2a expression to near normal levels | SERCA2a expression, nonischemic remote area (MI/R) (SERCA2a expression; 3 mg/kg/day s.c. osmotic pump): no significant differences | left ventricular fractional shortening (LVFS) ([2]; 6 weeks after treatment, 3 mg/kg/day s.c. osmotic pump from 2 hours post occlusion): 28.8±1.7% | left ventricular fractional shortening (LVFS) ([2]; 15 minutes after coronary occlusion (before treatment)): 45±1.8 | left ventricular fractional shortening (LVFS) ([2]; baseline before coronary occlusion (before treatment)): 44.5±1.1% | LV ejection fraction [3]: 55.3±1.4% | LV stroke volume [3]: 0.257 ± 0.008 mL | minimum left ventricular pressure [4]: 0.64±0.55 mmHg | Diastolic BP ([4]; 3 mg/kg/day s.c.): 85 ± 2 mmHg | Heart Rate ([4]; 3 mg/kg/day s.c.): 209 ± 5 | Mean BP ([4]; 3 mg/kg/day s.c.): 94 ± 3 mmHg | Systolic BP ([4]; 3 mg/kg/day s.c.): 114 ± 4 mmHg | +dp/dt ([4]; left ventricle): 5668 | Ped (end diastolic left ventricular pressure) ([4]; left ventricle): 5.63 | Pes (end systolic left ventricular pressure) ([4]; left ventricle): 105 | Pmin (minimum left ventricular pressure) ([4]; left ventricle): 0.64 + | Tau Glantz ([4]; left ventricle): 24.6 | Tau Weiss ([4]; left ventricle): 14.6 | −dp/dt ([4]; left ventricle): 3639 | Heart weight ([5]; 3 mg/kg/day s.c.): 0.724 ± 0.011 g | LV volume (post-mortem) ([5]; heart pressure fixed at 11 mmHg): 0.519 ± 0.019 mL | LV volume/heart weight ([5]; post-mortem LV volume standardized by heart weight): 0.72±0.02 | Scar circumference (%), expressed as percentage of total LV circumference [6]: 39.7±2.2% | Scar thickness [6]: 0.504 ± 0.039 mm | Septum thickness [6]: 1.45 ± 0.03 mm | LV non-scar circumference ([6]; histological analysis): 15.4±0.4 mm | scar circumference ([6]; histological analysis): 9.9±0.6 mm | Expansion index ([6]; [LV cavity area/Total LV area×Septum thickness/Scar thickness]): 1.67 ± 0.12 | deaths during treatment [7]: no rats died | LV volume/heart weight ([8]; 3 mg/kg/day for six weeks by mini-osmotic pump versus 0.9% NaCl, FIG. 6): decrease in LV volume/heart weight | LV dilation ([8]; 3 mg/kg/day for six weeks by mini-osmotic pump, post-infarction model of heart failure): reduced LV dilation
